Patent US8192962B2, “Processes for detecting toxic substances” (Daikin Industries, Ltd., priority 2001, dated 2012)

Test system: Mitochondria-located protein genes
Experiment: DNA chip mRNA expression in yeast, mitochondria-located protein genes (Table 2)
Assay type: cell-based, Saccharomyces cerevisiae S288C
Settings: cells incubated two hours with the chemical substance
Method in brief: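 First, S288C yeast grown in YPD at 25° C. are dosed in log phase with one toxicant (growth-inhibiting, not lethal) for 2 h. Next, total RNA is extracted and poly(A) mRNA isolated and reverse-transcribed with Cy3/Cy5-dUTP. Finally, whole-genome chip fluorescence is read relative to unexposed cells.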

[Cl][Pb][Cl] [(4), PbCl2]
The level of expressed mRNA in the presence of chemical substance/The level of expressed mRNA in the absence of chemical substance (yeast gene YAL039C): 1.0
The level of expressed mRNA in the presence of chemical substance/The level of expressed mRNA in the absence of chemical substance (yeast gene YBL022C): 0.7
The level of expressed mRNA in the presence of chemical substance/The level of expressed mRNA in the absence of chemical substance (yeast gene YBL030C): 0.9
The level of expressed mRNA in the presence of chemical substance/The level of expressed mRNA in the absence of chemical substance (yeast gene YBL038W): 1.8
The level of expressed mRNA in the presence of chemical substance/The level of expressed mRNA in the absence of chemical substance (yeast gene YBL099W): 1.4
The level of expressed mRNA in the presence of chemical substance/The level of expressed mRNA in the absence of chemical substance (yeast gene YBR003W): 1.9
The level of expressed mRNA in the presence of chemical substance/The level of expressed mRNA in the absence of chemical substance (yeast gene YBR044C): 1.9
The level of expressed mRNA in the presence of chemical substance/The level of expressed mRNA in the absence of chemical substance (yeast gene YBR091C): 3.0
The level of expressed mRNA in the presence of chemical substance/The level of expressed mRNA in the absence of chemical substance (yeast gene YBR122C): 1.1
The level of expressed mRNA in the presence of chemical substance/The level of expressed mRNA in the absence of chemical substance (yeast gene YBR185C): 2.0
The level of expressed mRNA in the presence of chemical substance/The level of expressed mRNA in the absence of chemical substance (yeast gene YBR221C): 1.5
The level of expressed mRNA in the presence of chemical substance/The level of expressed mRNA in the absence of chemical substance (yeast gene YBR251W): 1.2
The level of expressed mRNA in the presence of chemical substance/The level of expressed mRNA in the absence of chemical substance (yeast gene YBR282W): 2.3
The level of expressed mRNA in the presence of chemical substance/The level of expressed mRNA in the absence of chemical substance (yeast gene YCL057W): 0.5
The level of expressed mRNA in the presence of chemical substance/The level of expressed mRNA in the absence of chemical substance (yeast gene YCR046C): 1.6
The level of expressed mRNA in the presence of chemical substance/The level of expressed mRNA in the absence of chemical substance (yeast gene YCR083W): 1.8
The level of expressed mRNA in the presence of chemical substance/The level of expressed mRNA in the absence of chemical substance (yeast gene YDL067C): 1.3
The level of expressed mRNA in the presence of chemical substance/The level of expressed mRNA in the absence of chemical substance (yeast gene YDL181W): 1.8
The level of expressed mRNA in the presence of chemical substance/The level of expressed mRNA in the absence of chemical substance (yeast gene YDL198C): 1.4
The level of expressed mRNA in the presence of chemical substance/The level of expressed mRNA in the absence of chemical substance (yeast gene YDR079W): 1.1
The level of expressed mRNA in the presence of chemical substance/The level of expressed mRNA in the absence of chemical substance (yeast gene YDR178W): 2.2
The level of expressed mRNA in the presence of chemical substance/The level of expressed mRNA in the absence of chemical substance (yeast gene YDR231C): 1.5
The level of expressed mRNA in the presence of chemical substance/The level of expressed mRNA in the absence of chemical substance (yeast gene YDR258C): 1.4
The level of expressed mRNA in the presence of chemical substance/The level of expressed mRNA in the absence of chemical substance (yeast gene YDR298C): 1.3
The level of expressed mRNA in the presence of chemical substance/The level of expressed mRNA in the absence of chemical substance (yeast gene YDR347W): 3.5
The level of expressed mRNA in the presence of chemical substance/The level of expressed mRNA in the absence of chemical substance (yeast gene YDR377W): 1.4
The level of expressed mRNA in the presence of chemical substance/The level of expressed mRNA in the absence of chemical substance (yeast gene YDR529C): 3.2
The level of expressed mRNA in the presence of chemical substance/The level of expressed mRNA in the absence of chemical substance (yeast gene YEL024W): 1.1
The level of expressed mRNA in the presence of chemical substance/The level of expressed mRNA in the absence of chemical substance (yeast gene YEL039C): 5.1
The level of expressed mRNA in the presence of chemical substance/The level of expressed mRNA in the absence of chemical substance (yeast gene YER178W): 1.0
The level of expressed mRNA in the presence of chemical substance/The level of expressed mRNA in the absence of chemical substance (yeast gene YFL016C): 0.9
The level of expressed mRNA in the presence of chemical substance/The level of expressed mRNA in the absence of chemical substance (yeast gene YGL018C): 3.0
The level of expressed mRNA in the presence of chemical substance/The level of expressed mRNA in the absence of chemical substance (yeast gene YGL187C): 1.8
The level of expressed mRNA in the presence of chemical substance/The level of expressed mRNA in the absence of chemical substance (yeast gene YGL191W): 1.8
The level of expressed mRNA in the presence of chemical substance/The level of expressed mRNA in the absence of chemical substance (yeast gene YGR008C): 3.2
The level of expressed mRNA in the presence of chemical substance/The level of expressed mRNA in the absence of chemical substance (yeast gene YGR028W): 1.8
The level of expressed mRNA in the presence of chemical substance/The level of expressed mRNA in the absence of chemical substance (yeast gene YGR062C): 1.4
The level of expressed mRNA in the presence of chemical substance/The level of expressed mRNA in the absence of chemical substance (yeast gene YGR076C): 2.3
The level of expressed mRNA in the presence of chemical substance/The level of expressed mRNA in the absence of chemical substance (yeast gene YGR082W): 1.0
The level of expressed mRNA in the presence of chemical substance/The level of expressed mRNA in the absence of chemical substance (yeast gene YGR174C): 2.4
The level of expressed mRNA in the presence of chemical substance/The level of expressed mRNA in the absence of chemical substance (yeast gene YGR244C): 1.6
The level of expressed mRNA in the presence of chemical substance/The level of expressed mRNA in the absence of chemical substance (yeast gene YHR008C): 1.8
The level of expressed mRNA in the presence of chemical substance/The level of expressed mRNA in the absence of chemical substance (yeast gene YIL155C): 3.7
The level of expressed mRNA in the presence of chemical substance/The level of expressed mRNA in the absence of chemical substance (yeast gene YJL096W): 1.3
The level of expressed mRNA in the presence of chemical substance/The level of expressed mRNA in the absence of chemical substance (yeast gene YJL102W): 0.8
The level of expressed mRNA in the presence of chemical substance/The level of expressed mRNA in the absence of chemical substance (yeast gene YJL133W): 0.9
The level of expressed mRNA in the presence of chemical substance/The level of expressed mRNA in the absence of chemical substance (yeast gene YJL166W): 1.3
The level of expressed mRNA in the presence of chemical substance/The level of expressed mRNA in the absence of chemical substance (yeast gene YJL180C): 1.3
The level of expressed mRNA in the presence of chemical substance/The level of expressed mRNA in the absence of chemical substance (yeast gene YJR077C): 1.6
The level of expressed mRNA in the presence of chemical substance/The level of expressed mRNA in the absence of chemical substance (yeast gene YJR121W): 1.0
